Patent publication US20200291127A1, “ANTIBODIES AND METHODS OF USE THEREOF” (AbeXXa Biologics, Inc., priority 2020, published 2020)

Molecular target: HLA-E*0103 (Homo sapiens, UniProt P13747)
Experiment: HLA-E peptide refolding into monomer complexes
Type: biochemical

Sequence: YLLPAIVHI
- refolding of HLA-E*0103/peptide: successfully refold HLA-E*0103/peptide into stable monomer complexes
